# Source: the Kinase Knowledgebase extract (Sharma et al. 2016)
# Biological target: PIK3CG (human) (UniProt P48736)
# Assay: Inhibition of PIK3CG Kinase Activity
# PIK3CG (human), sequence (P48736 whole entry, looked up): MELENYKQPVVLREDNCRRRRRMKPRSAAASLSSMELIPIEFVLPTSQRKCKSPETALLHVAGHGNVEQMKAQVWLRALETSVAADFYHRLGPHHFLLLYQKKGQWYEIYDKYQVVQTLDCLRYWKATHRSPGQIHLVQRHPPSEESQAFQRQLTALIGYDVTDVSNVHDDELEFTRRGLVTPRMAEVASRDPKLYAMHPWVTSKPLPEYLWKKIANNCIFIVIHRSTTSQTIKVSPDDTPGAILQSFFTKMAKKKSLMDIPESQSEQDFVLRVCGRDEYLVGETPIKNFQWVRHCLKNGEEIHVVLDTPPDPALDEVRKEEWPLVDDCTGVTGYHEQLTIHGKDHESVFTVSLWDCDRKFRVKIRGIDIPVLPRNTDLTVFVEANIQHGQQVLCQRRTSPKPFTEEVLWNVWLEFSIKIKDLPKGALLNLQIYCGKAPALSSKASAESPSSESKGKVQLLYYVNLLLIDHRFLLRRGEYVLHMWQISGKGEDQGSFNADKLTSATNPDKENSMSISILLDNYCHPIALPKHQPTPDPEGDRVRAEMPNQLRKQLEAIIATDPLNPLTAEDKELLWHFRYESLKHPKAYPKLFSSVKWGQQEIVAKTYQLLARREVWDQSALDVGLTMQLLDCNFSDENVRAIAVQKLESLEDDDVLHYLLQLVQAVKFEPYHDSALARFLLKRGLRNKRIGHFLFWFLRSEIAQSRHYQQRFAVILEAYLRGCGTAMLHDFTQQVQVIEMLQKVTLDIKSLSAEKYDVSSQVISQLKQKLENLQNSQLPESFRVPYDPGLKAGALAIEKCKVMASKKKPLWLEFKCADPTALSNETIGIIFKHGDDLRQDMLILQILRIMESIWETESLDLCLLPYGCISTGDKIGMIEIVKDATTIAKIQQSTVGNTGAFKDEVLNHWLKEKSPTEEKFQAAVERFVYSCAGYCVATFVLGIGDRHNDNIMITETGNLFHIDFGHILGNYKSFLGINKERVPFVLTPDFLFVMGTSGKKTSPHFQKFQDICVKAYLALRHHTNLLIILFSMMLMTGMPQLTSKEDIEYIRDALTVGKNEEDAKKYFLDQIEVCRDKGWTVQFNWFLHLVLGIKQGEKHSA
row,SMILES,Ki [nM]
1,Cc1cc(-c2cncc(C(=O)N(C)C)c2)nc2c1C(=O)N(c1cnn(CC(F)(F)F)c1)C2(C)C,100 to 490
2,COc1cc(-c2ccc3c(n2)CN(c2cnn(CC(F)(F)F)c2)C3=O)cnc1OC(F)F,100 to 490
3,CCCn1cc(N2Cc3cc(-c4cnc(OC)c(OC)c4)ccc3C2=O)cn1,100 to 490
4,COc1cc(-c2ccc3c(n2)CN(c2ccc(=O)n(C)c2)C3=O)cnc1OC,100 to 490
5,COc1cc(-c2ccc3c(n2)CN(c2ccc(OCC(F)(F)F)nc2)C3=O)cnc1OC,100 to 490
6,COc1cc(-c2ccc3c(c2)CN(c2cc(C)ns2)C3=O)cnc1OC,100 to 490
7,COc1cc(-c2ccc3c(c2)CN(c2cn[nH]c2)C3=O)cnc1OC,< 100
8,COc1cc(-c2ccc3c(n2)CN(c2ccon2)C3=O)cnc1OC,< 100
9,Cc1cc(-c2cncc(OC(F)F)c2)nc2c1C(=O)N(c1ccnc(OCC(F)F)c1)C2C (stereo not drawn),< 100
10,Cc1cc(-c2cnc(C)c(O)c2)nc2c1C(=O)N(c1cnn(CC(F)(F)F)c1)C2(C)C,< 100
11,CCn1ccc(N2C(=O)c3c(C)cc(-c4cncc(OCC(F)F)c4)nc3[C@H]2C)n1,< 100
12,COc1cc(-c2ccc3c(n2)CN(c2ccon2)C3=O)cnc1O,100 to 490
13,COc1cc(-c2cc(C)c3c(n2)CN(c2ccnc(OC(F)F)c2)C3=O)cnc1OC,< 100
14,COc1ccc(-c2cc(C)c3c(n2)CN(c2cnn(C(C)(C)C#N)c2)C3=O)cc1OC,< 100
15,CCn1cc(N2Cc3nc(-c4cncc(OC(F)F)c4)cc(C)c3C2=O)cn1,< 100
16,Cc1cc(-c2cncc(OC(F)F)c2)nc2c1C(=O)N(c1cncc(CC#N)c1)C2,< 100
17,COc1cc(-c2ccc3c(n2)CN(c2cnn(CC4CCN(C(=O)OC(C)(C)C)CC4)c2)C3=O)cnc1OC,100 to 490

# More lines, now with the values ahead:
row,Ki [nM],SMILES
1,< 100,COc1cc(-c2ccc3c(n2)[C@@H](C)N(c2cn(CC(F)(F)F)cn2)C3=O)cnc1OC
2,< 100,COc1cncc(-c2cc(C)c3c(n2)C(C)N(c2cc[nH]n2)C3=O)c1 (stereo not drawn)
3,< 100,CCOc1cncc(-c2cc(C)c3c(n2)C(C)(C)N(c2cnn(CC(F)(F)F)c2)C3=O)c1
4,< 100,Cc1cc(-c2cnc(C)c(OCC(F)F)c2)nc2c1C(=O)N(c1cnn(CC(F)F)c1)C2C (stereo not drawn)
5,< 100,COc1cncc(-c2cc(C)c3c(n2)[C@@H](C)N(c2ccn(C[C@H](C)O)n2)C3=O)c1
6,< 100,Cc1cc(-c2cncc(C(=O)NC(C)(C)C)c2)nc2c1C(=O)N(c1cnn(CC(F)(F)F)c1)C2(C)C
7,< 100,COc1cncc(-c2cc(C)c3c(n2)C(C)N(c2cnn(CC(F)(F)F)c2)C3=O)c1 (stereo not drawn)
8,< 100,Cc1cc(-c2cnc(F)c(O)c2)nc2c1C(=O)N(c1cnn(CC(F)(F)F)c1)C2(C)C
9,< 100,COc1cc(-c2ccc3c(n2)CN(c2cnn([C@H](CO)C(F)(F)F)c2)C3=O)cnc1OC
10,< 100,COc1cc(-c2cc3c(c(C)n2)C(=O)N(c2cnn(CC(F)(F)F)c2)C3)cnc1OC
11,< 100,COc1cncc(-c2cc(C)c3c(n2)C2(CNC2)N(c2cnn(CC(F)(F)F)c2)C3=O)c1
12,< 100,COc1cc(-c2ccc3c(n2)[C@@H](C)N(c2cnn(CC#N)c2)C3=O)cnc1OC
13,< 100,CC(=O)Nc1cncc(-c2cc(C)c3c(n2)C(C)(C)N(c2cnn(CC(F)(F)F)c2)C3=O)c1
14,< 100,CCOc1ncc(-c2cc(C)c3c(n2)C2(CCOCC2)N(c2cnn(CC(F)(F)F)c2)C3=O)cc1OC
15,< 100,Cc1cc(-c2cncc(OCC(F)F)c2)nc2c1C(=O)N(c1cnn(CC(F)(F)F)c1)C2O (stereo not drawn)
16,< 100,COc1ncc(-c2ccc3c(n2)CN(c2cnn(C(C)(C)C#N)c2)C3=O)cc1OC(F)F
17,< 100,COc1cc(-c2cc(C)c3c(n2)CN(c2cnn(CC#N)c2)C3=O)cnc1OC
18,< 100,Cc1cc(-c2cncc(C(=O)N(C)C(C)CO)c2)nc2c1C(=O)N(c1cnn(CC(F)(F)F)c1)C2(C)C (stereo not drawn)
19,< 100,CCn1ccc(N2Cc3nc(-c4cnc(OC)c(OCC(F)F)c4)cc(C)c3C2=O)n1
20,< 100,COc1cc(-c2ccc3c(n2)CN(c2ccn(CC(F)F)c(=O)c2)C3=O)cnc1OC
21,< 100,CCC(O)c1ncc(N2Cc3nc(-c4cnc(OC)c(OC)c4)cc(C)c3C2=O)cn1 (stereo not drawn)
